The results in this text go back to patent US20130130238A1, “Fluorimetric Process for Evaluating the Influence of A Condition on A Biological Sample and Applications Thereof” (NOVALEADS, priority 2008, published 2013).

Common to all, as to format: cell-based
One experiment has as its system HepG2 cells. In words: Kinetic profile of SYTO13 fluorescence under continuous illumination, HepG2 cells treated with okadaic acid. The note with it: 0.01, 0.031, 0.1, 0.31 and 1 μM, 24 hours, 2 μM final SYTO13, illumination 20 seconds at 488 nm. The procedure: The cells were then labelled with a solution of SYTO13 of 2 μM final concentration then subjected to continuous illumination for 20 seconds. The intensity of fluorescence is then measured every 0.4 seconds. Each intensity value is then expressed as a percentage of the first fluorescence value measured. (IF: intensity of fluorescence; T: illumination time).
HepG2 cells (ATCC) are plated into a 96-well format transparent-bottomed black microplate at 20000 cells per well two days before the experiment. The day before the test the cells are or are not treated with 75 μl of 0.01, 0.031, 0.1, 0.31 and 1 μM solutions of okadaic acid (Sigma-Aldrich). The cells are incubated for 24 hours.
On the day of the test, the cells are labelled for 30 minutes at 37° C. with 25 μl of an 8 μM solution of SYTO13 (Invitrogen) (i.e. 2 μM final) prepared in MEM culture medium (Invitrogen).
The samples are placed under a fluorescence microscope at ×100 magnification then subjected to continuous illumination at 488 nm with a mercury lamp for 20 seconds. The intensity of fluorescence emitted by the biosensor is then measured every 0.4 seconds.

Experiment [1] deals with HeLa cells. In words: Kinetic profile of SYTO62 fluorescence under continuous illumination, HeLa cells treated with apoptotic agent. The note with it: 7 hours, 10 μM SYTO62, illumination 40 seconds at 488 nm. As to the method: HeLa cells were treated for 7 hours with (Δ, □, ⋄) or without (∘) 0.1 μM (Δ), 0.5 μM (□) and 1 μM (⋄) staurosporine. The cells were then labelled with a 10 μM solution of SYTO62 then subjected to continuous illumination for 40 seconds. The intensity of fluorescence is then measured every second. Each intensity value is then expressed as a percentage of the first fluorescence value measured. (IF: intensity of fluorescence; T: illumination time). HeLa cells (Sigma-Aldrich) are plated into a 96-well format transparent-bottomed black microplate at 20000 cells per well the day before the experiment. On the day of the test the cells are or are not treated with 0.1, 0.5 and 1 μM of staurosporine (Sigma-Aldrich) for 7 hours. The cells are then labelled for 20 minutes with 50 μl of a 10 μM solution of SYTO62 (Invitrogen) prepared in a buffer containing 25 mM Hepes, 140 mM NaCl, 1 mM EDTA and 0.1% bovine serum albumin (BSA), pH 7.4 (buffer A). The samples are placed under a fluorescence microscope (Leica DMIRB) at ×100 magnification then subjected to continuous illumination at 488 nm with a mercury lamp (HBO […]/2) for 40 seconds. The intensity of fluorescence emitted by the biosensor is then measured every second.

Experiment [2] deals with HeLa cells. In words: Kinetic profile of SYTO13 or SYTO15 fluorescence under continuous illumination, HeLa cells treated with apoptogenic agent. The note with it: 1 μM, 7 hours. The procedure: HeLa cells were treated for 7 hours with (∘, Δ) or without ([…], ▴) 1 μM staurosporine. The cells were then labelled with a 10 μM solution of SYTO13 (Δ, ▴) or SYTO15 (∘, […]) then subjected to continuous illumination for 300 seconds. The intensity of fluorescence is then measured every 5 seconds. Each intensity value is then expressed as a percentage of the first fluorescence value measured. (IF: intensity of fluorescence; T: illumination time).
HeLa cells (Sigma-Aldrich) are plated into a 96-well format transparent-bottomed black microplate at 20000 cells per well the day before the experiment. On the day of the test the cells are or are not treated with 1 μM of staurosporine for 7 hours. The cells are then labelled for 20 minutes with 50 μl of a 10 μM solution of SYTO13 (Invitrogen) or SYTO15 (Invitrogen) prepared in buffer A.
The labelled cells are placed under a fluorescence reader of the Varioskan type (Thermo Electron Corporation) equipped with a Xenon Flash lamp. The samples labelled with SYTO13 and SYTO15 are then subjected for 300 seconds to continuous illumination at 488 nm and 516 nm respectively. The fluorescence intensities emitted by these biosensors are then measured every 5 seconds.

For experiment [3], the system named is HeLa cells. In words: Kinetic profile of SYTO62 fluorescence under continuous illumination, HeLa cells treated with anticancer agent. The note with it: 0.1 μM and 1 μM, 24 hours, 10 μM SYTO62, illumination 50 seconds at 488 nm. The procedure:
The intensity of fluorescence is then measured every second. Each intensity value is then expressed as a percentage of the first fluorescence value measured. (IF: intensity of fluorescence; T: illumination time). HeLa cells (Sigma-Aldrich) are plated into a 96-well format transparent-bottomed black microplate at 20000 cells per well the day before the experiment. […] The intensity of fluorescence emitted by the biosensor is then measured every second.

The structures appear in SMILES notation.

With `C=C1[C@@H](O)[C@@H]2O[C@]3(CC[C@H](/C=C/[C@@H](C)[C@@H]4CC(C)=C[C@@]5(O[C@H](C[C@@](C)(O)C(=O)O)CC[C@H]5O)O4)O3)CC[C@H]2O[C@@H]1[C@@H](O)C[C@H](C)[C@H]1O[C@@]2(CCCCO2)CC[C@H]1C` [okadaic acid], the “variation in fluorescence measured under illumination” value in the experiment on HepG2 cells is “dose-dependent decrease in the variation in fluorescence”.

`CN[C@@H]1C[C@H]2O[C@@](C)([C@@H]1OC)n1c3ccccc3c3c4c(c5c6ccccc6n2c5c31)C(=O)NC4` [staurosporine]: the “increase in the intensity of fluorescence measured under continuous illumination” value was “a weaker increase in fluorescence than in the untreated condition” in the experiment on HeLa cells [1] (0.1 μM), “an increase in fluorescence is no longer measured” in the experiment with HeLa cells [1] (0.5 μM) and “an increase in fluorescence is no longer measured” in the experiment with HeLa cells [1] (1 μM). For the same compound, the “increase in the fluorescence measured under continuous illumination” value with HeLa cells [2] (10 μM SYTO13, illumination 300 seconds at 488 nm) is on record as “does not induce an increase in the fluorescence measured”; with HeLa cells [2] (10 μM SYTO15, illumination 300 seconds at 516 nm), “does not induce an increase in the fluorescence measured”.

`CC(=O)O[C@H]1C(=O)[C@@]2(C)[C@H]([C@H](OC(=O)c3ccccc3)[C@]3(O)C[C@H](OC(=O)[C@H](O)[C@@H](NC(=O)c4ccccc4)c4ccccc4)C(C)=C1C3(C)C)[C@]1(OC(C)=O)CO[C@@H]1C[C@@H]2O` [Taxol, Paclitaxel]: the “variation in fluorescence measured under illumination” value with HeLa cells [3] is “dose-dependent decrease in the variation in fluorescence”.
